Laboratory results as given in patent US9232796B2, “Herbicidal compositions comprising 4-amino-3-chloro-5-fluoro-6-(4-chloro-2-fluoro-3-methoxyphenyl) pyridine-2-carboxylic acid or a derivative thereof and acetyl-CoA carboxylase (ACCase) inhibitors” (DOW AGROSCIENCES LLC, priority 2012, dated 2016).

What was measured:
CYPIR = experiment: Example V post-emergence field trials in direct-seeded rice; type: in vivo, Cyperus iria; conditions: foliar, field trial Tolima, Colombia
Protocol: (§1) Multiple field trials were conducted under commercial grower field conditions in Tolima, Colombia; Thessaloniki, Greece; Bianze and Copiano, Italy; and Humphrey, Ark., USA. Trials sites were located in commercially grown fields of direct-seeded rice (Oryza sativa) using standard herbicide small plot research methodology. Plots varied from 2 to 3 meter (m)×5 to 8 m (width×length) with 4 replicates per treatment. The rice crop was grown using normal cultural practices for fertilization, seeding, watering, flooding and maintenance to ensure good growth of the crop and the weeds.
(§2) All treatments in the field trials were applied using a backpack compressed air/gas sprayer with flat fan nozzles (80° or 110°) calibrated to apply 187 to 300 L/ha spray volume at approximately 200-400 kPa nozzle pressure. Commercially available products of cyhalofop-butyl (Clincher 180EC, Clincher 200EC, and Clincher SF (285 gr ai/L EC)) were mixed in water at appropriate formulated product rates to achieve the desired rates based on a unit area of application (hectare) to achieve the desired rates as shown. Treatments were rate at 19 to 58 days after application (DAA) as compared to the untreated control plants. Visual weed control was scored on a scale of 0 to 100 percent where 0 corresponds to no injury and 100 corresponds to complete kill. […]

CYPRO = experiment: Example VI in-water applied ternary mixtures, greenhouse, transplanted paddy rice weeds; type: in vivo, Cyperus rotundus L.
Protocol: Weed seeds or nutlets of the desired test plant species were planted in puddled soil (mud) prepared by mixing a shredded, non-sterilized mineral soil (50.5 percent silt, 25.5 percent clay, and 24 percent sand, with a pH of about 7.6 and an organic matter content of about 2.9 percent) and water at a 1:1 volumetric ratio. The prepared mud was dispensed in 365 mL aliquots into 16-ounce (oz.) non-perforated plastic pots with a surface area of 86.59 square centimeters (cm^2) leaving a headspace of 3 centimeters (cm) in each pot. Mud was allowed to dry overnight prior to planting or transplanting. Rice seeds were planted in Sun Gro MetroMix® 306 planting mixture, which typically has a pH of 6.0 to 6.8 and an organic matter content of about 30 percent, in plastic plug trays. Seedlings at the second or third leaf stage of growth were transplanted into 860 mL of mud contained in 32-oz. non-perforated plastic pots with a surface area of 86.59 cm^2 4 days prior to herbicide application. The paddy was created by filling the headspace of the pots with 2.5 to 3 cm of water. When required to ensure good germination and healthy plants, a fungicide treatment and/or other chemical or physical treatment was applied. The plants were grown for 4-22 days in a greenhouse with an approximate 14 hr. photoperiod which was maintained at about 29° C. during the day and 26° C. during the night. Nutrients were added as Osmocote® (19:6:12, N:P:K+minor nutrients) at 2 g per 16-oz. pot and 4 g per 32-oz. pot. Water was added on a regular basis to maintain the paddy flood, and supplemental lighting was provided with overhead metal halide 1000-Watt lamps as necessary. The plants were employed for testing when they reached the first through fourth true leaf stage.
Treatments consisted of the benzyl ester of 4-amino-3-chloro-5-fluoro-6-(4-chloro-2-fluoro-3-methoxy-phenyl)pyridine-2-carboxylic acid (Compound A), formulated as an SC (suspension concentrate), an ACCase inhibitor herbicide, and a third herbicidal component, each applied alone and in ternary combination. Forms of compound A were applied on an acid equivalent basis.
The ACCase inhibitor component was applied on an active ingredient basis and included cyhalofop-R-butyl formulated as Clincher® G and metamifop formulated as Metamifop EC. Other herbicidal components were applied on an active ingredient or acid equivalent basis depending on the compound and included penoxsulam formulated as Grasp® SC, bentazon sodium formulated as Basagran®, triclopyr […] (TEA) salt formulated as Grandstand® R, benzobicyclon formulated as Benzobicyclon, benfuresate formulated as Full Slot® WG, pyraclonil formulated as Pyraclon® Flowable, mefenacet (technical grade material), and pretilachlor (technical grade material).
Treatment requirements for each compound or herbicidal component were calculated based upon the rates being tested, the concentration of active ingredient or acid equivalent in the formulation, an application volume of 1 mL per component per pot, and an application area of 86.59 cm^2 per pot.
For formulated compounds, a measured amount was placed in an individual 100 or 200 mL glass vial and was dissolved in a volume of 1.25% (v/v) Agri-Dex® crop oil concentrate to obtain application solutions.
For technical grade compounds, a weighed amount was placed in an individual 100 to 200 mL glass vial and was dissolved in a volume of acetone to obtain concentrated stock solutions.
Applications were made by injecting with a pipetter appropriate amounts of the application solutions, into the aqueous layer of the paddy. Control plants were treated in the same manner with the solvent blank. Applications were made so that all treated plant material received the same concentrations of acetone and crop oil concentrate.
The treated plants and control plants were placed in a greenhouse as described above and water was added as needed to maintain a paddy flood. […]

ECHCO = experiment: Example V post-emergence field trials in direct-seeded rice; type: in vivo, Echinochloa colona; conditions: foliar, field trial Tolima, Colombia
Protocol: as §1, §2

ECHCG = experiment: Example VI in-water applied ternary mixtures, greenhouse, transplanted paddy rice weeds; type: in vivo, Echinochloa crus-galli (L.) Beauv.
Procedure, shortened: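 Compound A (SC, acid-equivalent basis) alone or with cyhalofop-R-butyl or metamifop plus a third herbicide, injected into paddy water of greenhouse-grown transplanted rice and weeds at 1st–4th leaf stage (~29/26 °C). Visual injury scored 0–100% after ~3 weeks vs untreated; expected mixture effects by Colby's equation.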

SMILES: COc1c(Cl)ccc(-c2nc(C(=O)OCc3ccccc3)c(Cl)c(N)c2F)c1F [Compound A Benzyl Ester, benzyl ester of 4-amino-3-chloro-5-fluoro-6-(4-chloro-2-fluoro-3-methoxy-phenyl)pyridine-2-carboxylic acid]
- Visual Weed Control (%) - 19 DAA CYPIR Obs (CYPIR; 12 gae/ha): 69%
- Visual Weed Control (%) - 21 DAA CYPRO Obs (CYPRO; 2.19 gae/ha): 0%
- Visual Weed Control (%) - 24 DAA CYPRO Obs (CYPRO; 4 gae/ha): 40%
- Visual Weed Control (%) - 24 DAA CYPRO Obs (CYPRO; 8 gae/ha): 60%
- Visual Weed Control (%) - 24 DAA CYPRO Obs (CYPRO; 16 gae/ha): 85%
- Visual Weed Control (%) - 21 DAA CYPRO Obs (CYPRO; Table 69, 4 gae/ha, 21 DAA): 3%
- Visual Weed Control (%) - 21 DAA CYPRO Obs (CYPRO; Table 69, 8 gae/ha, 21 DAA): 33%
- Visual Weed Control (%) - 21 DAA CYPRO Obs (CYPRO; Table 70, 4 gae/ha, 21 DAA): 3%
- Visual Weed Control (%) - 21 DAA CYPRO Obs (CYPRO; Table 70, 8 gae/ha, 21 DAA): 33%
- Visual Weed Control (%) - 19 DAA ECHCO Obs (ECHCO; 12 gae/ha): 76%
- Visual Weed Control (%) - 21 DAA ECHCG Obs (ECHCG; 1.09 gae/ha, first set): 0%
- Visual Weed Control (%) - 21 DAA ECHCG Obs (ECHCG; 1.09 gae/ha, first sub-table): 0%
- Visual Weed Control (%) - 21 DAA ECHCG Obs (ECHCG; 2.19 gae/ha, first set): 7%
- Visual Weed Control (%) - 21 DAA ECHCG Obs (ECHCG; 2.19 gae/ha, first sub-table): 7%
- Visual Weed Control (%) - 21 DAA ECHCG Obs (ECHCG; 4 gae/ha): 25%
- Visual Weed Control (%) - 21 DAA ECHCG Obs (ECHCG; 4 gae/ha, second set): 25%
- Visual Weed Control (%) - 21 DAA ECHCG Obs (ECHCG; 4 gae/ha, second sub-table): 25%
- Visual Weed Control (%) - 21 DAA ECHCG Obs (ECHCG; 8 gae/ha): 45%
- Visual Weed Control (%) - 21 DAA ECHCG Obs (ECHCG; 8 gae/ha, second set): 45%
- Visual Weed Control (%) - 21 DAA ECHCG Obs (ECHCG; 8 gae/ha, second sub-table): 45%
- Visual Weed Control (%) - 21 DAA ECHCG Obs (ECHCG; 16 gae/ha): 99%
- Visual Weed Control (%) - 21 DAA ECHCG Obs (ECHCG; 16 gae/ha, second set): 99%
- Visual Weed Control (%) - 21 DAA ECHCG Obs (ECHCG; 16 gae/ha, second sub-table): 99%
- Visual Weed Control (%) - 21 DAA ECHCG Obs (ECHCG; Table 67, 4 gae/ha, 21 DAA): 25%
- Visual Weed Control (%) - 21 DAA ECHCG Obs (ECHCG; Table 68, 4 gae/ha, 21 DAA): 25%
- Visual Weed Control (%) - 21 DAA ECHCG Obs (ECHCG; Table 68, 8 gae/ha, 21 DAA): 45%
- Visual Weed Control (%) - 21 DAA ECHCG Obs (ECHCG; Table 68, 16 gae/ha, 21 DAA): 99%

SMILES: CCCCOC(=O)[C@@H](C)Oc1ccc(Oc2ccc(C#N)cc2F)cc1 [Cyhalofop-butyl, butyl(2R)-2-[4-(4-cyano-2-fluorophenoxy)phenoxy]propanoate, reference compound]
- Visual Weed Control (%) - 19 DAA CYPIR Obs (CYPIR; 280 gai/ha): 0%
- Visual Weed Control (%) - 21 DAA CYPRO Obs (CYPRO; 22.5 gai/ha): 0%
- Visual Weed Control (%) - 21 DAA CYPRO Obs (CYPRO; 45 gai/ha): 0%
- Visual Weed Control (%) - 24 DAA CYPRO Obs (CYPRO; 90 gai/ha): 0%
- Visual Weed Control (%) - 24 DAA CYPRO Obs (CYPRO; 180 gai/ha): 0%
- Visual Weed Control (%) - 21 DAA CYPRO Obs (CYPRO; Table 69, 90 gai/ha, 21 DAA): 0%
- Visual Weed Control (%) - 21 DAA CYPRO Obs (CYPRO; Table 69, 180 gai/ha, 21 DAA): 0%
- Visual Weed Control (%) - 21 DAA CYPRO Obs (CYPRO; Table 70, 180 gai/ha, 21 DAA): 0%
- Visual Weed Control (%) - 19 DAA ECHCO Obs (ECHCO; 280 gai/ha): 0%
- Visual Weed Control (%) - 21 DAA ECHCG Obs (ECHCG; 22.5 gai/ha, first set): 0%
- Visual Weed Control (%) - 21 DAA ECHCG Obs (ECHCG; 22.5 gai/ha, first sub-table): 0%
- Visual Weed Control (%) - 21 DAA ECHCG Obs (ECHCG; 45 gai/ha): 30%
- Visual Weed Control (%) - 21 DAA ECHCG Obs (ECHCG; 45 gai/ha, first set): 3%
- Visual Weed Control (%) - 21 DAA ECHCG Obs (ECHCG; 45 gai/ha, first sub-table): 3%
- Visual Weed Control (%) - 21 DAA ECHCG Obs (ECHCG; 45 gai/ha, second set): 30%
- Visual Weed Control (%) - 21 DAA ECHCG Obs (ECHCG; 45 gai/ha, second sub-table): 30%
- Visual Weed Control (%) - 21 DAA ECHCG Obs (ECHCG; Table 67, 45 gai/ha, 21 DAA): 30%
- Visual Weed Control (%) - 21 DAA ECHCG Obs (ECHCG; Table 68, 45 gai/ha, 21 DAA): 30%
